# Source: DBAASP
# How the values were obtained:
# Test in all cases: ≥ marks a high value that may be exact or a test limit, other limits are often not marked, values filed in µg/mL are converted to µM
# [1] = tested on: Candida albicans ATCC 10259
# [2] = tested on: Candida albicans ATCC 24433
# [3] = tested on: Enterococcus faecalis ATCC 29212
# [4] = tested on: Enterococcus faecium BCRC 15B0132
# [5] = tested on: Klebsiella pneumoniae NCIMB 9111
# [6] = tested on: Micrococcus luteus ATCC 10240
# [7] = tested on: Pseudomonas aeruginosa ATCC 27853
# [8] = tested on: Staphylococcus aureus ATCC 25923
# [9] = tested on: Staphylococcus aureus VISA1
# [10] = tested on: Staphylococcus aureus VISA3
# [11] = tested on: Staphylococcus aureus VRSA1
# [12] = tested on: Staphylococcus aureus VRSA2
# [13] = tested on: Staphylococcus epidermidis ATCC 12228
# Escherichia coli KF111 = tested on: Escherichia coli KF111
# Escherichia coli KF130 = tested on: Escherichia coli KF130
# Escherichia coli UB1005 = tested on: Escherichia coli UB1005
# [14] = tested on: Pseudomonas aeruginosa H374
# [15] = tested on: Pseudomonas aeruginosa H744
# [16] = tested on: Pseudomonas aeruginosa K799
# [17] = tested on: Salmonella enterica subsp. enterica serovar Typhimurium ATCC 14028s
# [18] = tested on: Staphylococcus epidermidis
# [19] = tested on: Bacillus cereus ATCC 9193
# Escherichia coli BL21 = tested on: Escherichia coli BL21
# [20] = tested on: Pasteurella multocida ATCC 6529
# [21] = tested on: Salmonella enterica subsp. enterica serovar Choleraesuis CVCC 2140
# [22] = tested on: Staphylococcus aureus ATCC 29213
# [23] = tested on: Enterococcus faecalis NCTC 12697
# [24] = tested on: Escherichia coli ATCC 25922
# [25] = tested on: Escherichia coli ATCC 27325
# [26] = tested on: Lactobacillus acidophilus NCTC 1723
# [27] = tested on: Pseudomonas aeruginosa ATCC 15692
# [28] = tested on: Streptococcus mutans NCTC 10449
# [29] = tested on: Bacillus subtilis ATCC 62037
# [30] = tested on: Candida albicans ATCC 10231
# [31] = tested on: Cryptococcus neoformans ATCC 34881
# [32] = tested on: Pseudomonas putida ATCC 17426
# [33] = tested on: Saccharomyces cerevisiae ATCC 44774
# [34] = tested on: Salmonella enterica subsp. enterica serovar Enteritidis ATCC 13076
# [35] = tested on: Staphylococcus aureus ATCC 15752
# [36] = tested on: Streptococcus mutans ATCC 25175
smiles,measurement,setting,value
CC(=O)N[C@@H](C)C(=O)N[C@@H](CCCCN)C(=O)N[C@@H](CCCN=C(N)N)C(=O)N[C@@H](Cc1cnc[nH]1)C(=O)N[C@@H](Cc1cnc[nH]1)C(=O)NCC(=O)N[C@@H](Cc1ccc(O)cc1)C(=O)N[C@@H](CCCCN)C(=O)N[C@@H](CCCN=C(N)N)C(=O)N[C@@H](CCCCN)C(=O)N[C@@H](Cc1ccccc1)C(=O)N[C@@H](Cc1cnc[nH]1)C(N)=O [AKRHHGYKRKFH],MIC,[1],≥ 47.9 µM
same,MIC,[2],≥ 47.9 µM
same,MIC,[3],10.2 µM
same,MIC,[4],≥ 40.9 µM
same,MIC,[5],≥ 320 µM
same,MIC,[6],≥ 47.9 µM
same,MIC,[7],320 µM
same,MIC,[8],20.8 µM
same,MIC,[9],≥ 40.9 µM
same,MIC,[10],≥ 40.9 µM
same,MIC,[11],≥ 40.9 µM
same,MIC,[12],≥ 40.9 µM
same,MIC,[13],20.8 µM
CC[C@H](C)[C@H](NC(=O)[C@@H]1CCCN1C(=O)[C@H](CCCCN)NC(=O)[C@H](CC(C)C)NC(=O)[C@H](C)NC(=O)[C@@H](NC(=O)[C@H](Cc1ccc(O)cc1)NC(=O)[C@H](CC(C)C)NC(=O)[C@@H](NC(=O)[C@@H](NC(=O)[C@H](CCCN=C(N)N)NC(=O)[C@H](C)NC(=O)[C@@H]1CCCN1C(=O)[C@H](CO)NC(=O)[C@H](CCCCN)NC(=O)[C@H](Cc1ccccc1)NC(=O)[C@@H](NC(=O)[C@H](CCCCN)NC(=O)[C@H](CC(C)C)NC(=O)[C@H](Cc1ccccc1)NC(=O)[C@H](CO)NC(=O)[C@H](CCCCN)NC(=O)[C@H](Cc1c[nH]c2ccccc12)NC(=O)[C@@H](N)CCCCN)[C@@H](C)O)[C@@H](C)O)C(C)C)[C@@H](C)O)C(=O)N[C@@H](CO)C(=O)N[C@@H](CO)C(=O)O [KWKSFLKTFKSPARTVLYTALKPISS],MIC,Escherichia coli KF111,0.667 µM
same,MIC,Escherichia coli KF130,0.667 µM
same,MIC,Escherichia coli UB1005,0.334 µM
same,MIC,[14],5.34 µM
same,MIC,[15],5.34 µM
same,MIC,[16],10.7 µM
same,MIC,[17],5.34 µM
same,MIC,[18],21.3 µM
CC(C)C[C@@H]1NC(=O)CNC(=O)CNC(=O)[C@H](Cc2cnc[nH]2)NC(=O)[C@@H]2CSSC[C@@H]3NC(=O)[C@H](Cc4ccccc4)NC(=O)[C@H](CC(N)=O)NC(=O)CNC(=O)[C@H](CCC(N)=O)NC(=O)[C@H](CO)NC(=O)[C@H](CCCN=C(N)N)NC(=O)[C@@H](NC(=O)[C@H](C)NC(=O)[C@H](C)NC(=O)[C@@H](NC(=O)[C@H](CC(=O)O)NC(=O)[C@H](C)NC(=O)[C@H](Cc4ccccc4)NC(=O)[C@@H]4CCCN4C(=O)[C@H](C)NC(=O)[C@H](CC(=O)O)NC(=O)[C@H](C)NC(=O)[C@H](CO)NC(=O)CNC(=O)[C@@H]4CCCN4C(=O)[C@H](C)NC(=O)[C@H](C)NC(=O)[C@H](CCC(N)=O)NC(=O)[C@H](Cc4ccccc4)NC(=O)[C@H](CC(C)C)NC(=O)[C@H](Cc4ccccc4)NC(=O)[C@H](CC(C)C)NC(=O)[C@H](CC(C)C)NC(=O)[C@@H](N)C(C)C)[C@@H](C)O)CSSC[C@H](NC(=O)[C@H](CC(N)=O)NC(=O)[C@H](CC(C)C)NC1=O)C(=O)N[C@H](C(=O)N[C@@H](C)C(=O)N[C@@H](CCCCN)C(=O)O)CSSC[C@H](NC(=O)[C@H](C)NC(=O)CNC(=O)[C@H](C)NC(=O)[C@H](CCCN=C(N)N)NC3=O)C(=O)N1CCC[C@H]1C(=O)N1CCC[C@H]1C(=O)N[C@@H]([C@@H](C)O)C(=O)N[C@@H](Cc1ccccc1)C(=O)N[C@@H](C)C(=O)N[C@@H](C)C(=O)N[C@@H](CO)C(=O)NCC(=O)N[C@@H](CO)C(=O)N2 [VLLFLFQAAPGSADAPFADTAACRSQGNFCRAGACPPTFAASGSCHGGLLNCCAK],MIC,[19],0.97 µM
same,MIC,Escherichia coli BL21,≥ 57.4 µM
same,MIC,[20],14.4 µM
same,MIC,[21],≥ 73.2 µM
same,MIC,[22],3.66 µM
CC[C@H](C)[C@H](NC(=O)[C@H](CO)NC(=O)[C@H](CC(N)=O)NC(=O)[C@H](CC(C)C)NC(=O)[C@H](Cc1ccc(O)cc1)NC(=O)[C@H](CCCCN)NC(=O)[C@H](CCCCN)NC(=O)[C@@H](NC(=O)[C@H](C)NC(=O)[C@H](CCSC)NC(=O)[C@H](CCC(N)=O)NC(=O)[C@H](CCCCN)NC(=O)[C@H](CCCN=C(N)N)NC(=O)[C@H](CC(C)C)NC(=O)[C@H](CCCN=C(N)N)NC(=O)[C@@H](NC(=O)[C@H](Cc1ccc(O)cc1)NC(=O)[C@H](CC(N)=O)NC(=O)[C@H](CC(=O)O)NC(=O)[C@@H](NC(=O)[C@H](Cc1ccccc1)NC(=O)[C@@H](NC(=O)[C@H](C)NC(=O)[C@H](CC(=O)O)NC(=O)[C@H](CO)NC(=O)[C@@H](N)Cc1cnc[nH]1)C(C)C)[C@@H](C)O)[C@@H](C)O)C(C)C)C(=O)N[C@@H](CC(C)C)C(=O)N[C@@H](CC(N)=O)C(N)=O [HSDAVFTDNYTRLRKQMAVKKYLNSILN],MIC,[23],≥ 150 µM
same,MIC,[24],1.56 µM
same,MIC,[25],≥ 150 µM
same,MIC,[26],≥ 150 µM
same,MIC,[27],≥ 75.1 µM
same,MIC,[7],1.23 µM
same,MIC,[8],> 150 µM
same,MIC,[28],≥ 45.3 µM
CC[C@H](C)[C@H](NC(=O)[C@@H]1CCCN1C(=O)[C@H](Cc1c[nH]c2ccccc12)NC(=O)[C@H](CCC(N)=O)NC(=O)[C@H](CCCCN)NC(=O)[C@@H](NC(=O)[C@@H](NC(=O)[C@@H](N)CCCCN)C(C)C)C(C)C)C(=O)NCC(=O)N[C@@H](CCCCN)C(=O)N[C@H](C(=O)N[C@H](C(=O)N[C@@H](CCCCN)C(=O)N[C@@H](CCCCN)C(=O)N[C@H](C(=O)N[C@H](C(=O)N[C@@H](CCCCN)C(=O)N[C@@H](CCCCN)C(=O)N[C@H](C(=O)N[C@H](C(=O)N[C@@H](CCCCN)C(=O)O)C(C)C)C(C)C)C(C)C)C(C)C)C(C)C)C(C)C [KVVKQWPIGKVVKKVVKKVVK],MIC,[29],0.827 µM
same,MIC,[30],0.413 µM
same,MIC,[31],0.827 µM
same,MIC,[25],0.827 µM
same,MIC,[32],0.413 µM
same,MIC,[33],0.827 µM
same,MIC,[34],0.827 µM
same,MIC,[35],0.413 µM
same,MIC,[36],0.827 µM
